Data set [1] deals with Bacillus pumilus MTCC 1607. The data set is described as follows: MIC by microbroth dilution, Bacillus pumilus MTCC 1607. It is filed as cell-based. The conditions noted are these: 37° C., 16-18 hrs; for MIC: MTCC1607, Mueller Hinton Broth, read-out: MIC, in vitro activity, Bp; for MIC, in vitro activity, Bp: Mueller Hinton Broth. As for the experimental part:
(§1) The antibacterial spectrum and potency of a particular compound may be determined in a standard test system.
(§2) The minimum inhibitory concentrations (MIC's) of the compounds for the microorganisms listed in Table A were determined by preparing working solution for each compound of concentration of 128 μg/ml after dissolving it in DMSO. […] 30 μg/ml of Standard suspension of each organism which was prepared with turbidity equivalent to the 1:10 diluted 0.5 McFarland standard with density 10^7 CFU/ml, was added to each well to get approximately a density of 10^5 CFU/ml. These 96-well Tissue culture plate containing the test samples and positive and negative controls, were incubated at 37° C. for 16-18 hrs. The wells were visually inspected for growth and were also read at 630 nm by Automated Microplate Reader [(EL800) Trinity Biotech.] and the MIC's were recorded as the lowest concentration of drug which inhibits the growth of bacteria.
(§3) • Bp: Bacillus pumilus MTCC 1607 • S.e.: Staphylococcus epidermidis MTCC 155 • S.p.: Staphylococcus pyogenes MTCC 442 • S.a.1: Staphylococcus aureus MTCC 96 • S.a.2: Staphylococcus aureus ATCC 14154 • S.a.3: Staphylococcus aureus ATCC 25923 • S.a.4: Staphylococcus aureus ATCC 29213 • E.f.1: Enterococcus faecalis MTCC 439 • E.f.2: Enterococcus faecalis ATCC 14506 • K.0p.: Klebsiella pneumoniae ATCC 10031

The subject of data set [2] is Staphylococcus aureus MTCC 96. Nature of the data set: MIC by microbroth dilution, Staphylococcus aureus MTCC 96. It is filed as cell-based. The note with it: 37° C., 16-18 hrs; for MIC: MTCC96, Mueller Hinton Broth, read-out: MIC, in vitro activity, Sa1; for MIC, in vitro activity, Sa1: Mueller Hinton Broth. As for the experimental part: as §1, §2, §3
In general terms: Broth dilution looks for growth in wells or tubes with falling amounts of substance.

Data set [3] deals with Staphylococcus aureus ATCC 14154. The data set is described as follows: MIC by microbroth dilution, Staphylococcus aureus ATCC 14154. It is filed as cell-based. The note with it: ATCC14154, Mueller Hinton Broth, 37° C., 16-18 hrs, read-out: MIC, in vitro activity, Sa2. As for the experimental part: as §1, §2, §3
In data set [4] the test system is Staphylococcus aureus ATCC 25923. The data set is described as follows: MIC by microbroth dilution, Staphylococcus aureus ATCC 25923. In kind it is cell-based. The note with it: ATCC25923, Mueller Hinton Broth, 37° C., 16-18 hrs, read-out: MIC, in vitro activity, Sa3. As for the experimental part: as §1, §2, §3
Data set [5] deals with Staphylococcus aureus ATCC 29213. Nature of the data set: MIC by microbroth dilution, Staphylococcus aureus ATCC 29213. In kind it is cell-based. The conditions noted are these: ATCC29213, Mueller Hinton Broth, 37° C., 16-18 hrs, read-out: MIC, in vitro activity, Sa4. As to the method: as §1, §2, §3
In data set [6] the test system is Staphylococcus epidermidis MTCC 155. Nature of the data set: MIC by microbroth dilution, Staphylococcus epidermidis MTCC 155. The note with it: MTCC155, Mueller Hinton Broth, 37° C., 16-18 hrs, read-out: MIC, in vitro activity, Se. In kind it is cell-based. As to the method:
as §1, §2, §3

Data set [7] deals with Staphylococcus pyogenes MTCC 442. Nature of the data set: MIC by microbroth dilution, Staphylococcus pyogenes MTCC 442. It is filed as cell-based. The note with it: MTCC442, Mueller Hinton Broth, 37° C., 16-18 hrs, read-out: MIC, in vitro activity, Sp. As to the method: as §1, §2, §3
Data set [8] concerns Enterococcus faecalis MTCC 439. Nature of the data set: MIC by microbroth dilution, Enterococcus faecalis MTCC 439. The conditions noted are these: 37° C., 16-18 hrs; for MIC: MTCC439, Mueller Hinton Broth, read-out: MIC, in vitro activity, Ef1. It is filed as cell-based. As for the experimental part:
as §1, §2, §3

In data set [9] the test system is Pseudomonas aeruginosa ATCC 27853. The data set is described as follows: MIC by microbroth dilution, Pseudomonas aeruginosa ATCC 27853. In kind it is cell-based. The conditions noted are these: 37° C., 16-18 hrs; for MIC: ATCC27853, Mueller Hinton Broth, read-out: MIC, in vitro activity, Pa; for MIC, in vitro activity, Pa: Mueller Hinton Broth. As to the method: as §1, §2
P.a.: Pseudomonas aeruginosa ATCC 27853

Data set [10] deals with Enterococcus faecalis ATCC 14506. Nature of the data set: MIC by microbroth dilution, Enterococcus faecalis ATCC 14506. It is filed as cell-based. The conditions noted are these: ATCC14506, Mueller Hinton Broth, 37° C., 16-18 hrs, read-out: MIC, in vitro activity, Ef2. As for the experimental part: as §1, §2, §3

Molecules are shown by their SMILES. ≈ marks a conversion by molar mass, not a printed value. Where only a bound is given, the exact number is not on record here.

As for `O=C(O)c1cn(C2CC2)c2cc(N3CCc4sccc4C3)c(F)cc2c1=O` [Compound 14, 1-Cyclopropyl-7-(6,7-dihydro-4H-thieno[3,2-c]pyridin-5-yl)-6-fluoro-4-oxo-1,4-dihydro-quinoline-3-carboxylic acid], the MIC was at most 0.12 µg/mL in data set [1]; 0.25 µg/mL (≈ 0.65 µM) in data set [2]; 0.25 µg/mL (≈ 0.65 µM) in data set [3]; 0.5 µg/mL (≈ 1.3 µM) in data set [4]; 0.5 µg/mL (≈ 1.3 µM) in [5]; 0.25 µg/mL (≈ 0.65 µM) in data set [6].
`COc1c(N2CCc3sccc3C2)c(F)cc2c(=O)c(C(=O)O)cn(C3CC3)c12` [Compound 13, 1-Cyclopropyl-7-(6,7-dihydro-4H-thieno[3,2-c]pyridin-5-yl)-6-fluoro-8-methoxy-4-oxo-1,4-dihydro-quinoline-3-carboxylic acid]: the melting point was in the range of 173 to 175 °C. Besides, the MIC in data set [1] is at most 0.12 µg/mL. In addition, the MIC in data set [7] is at most 0.12 µg/mL. Moreover, the MIC in [2] is at most 0.12 µg/mL. In addition, the MIC in [3] is at most 0.12 µg/mL. In addition, the MIC in [8] is at most 0.12 µg/mL. In addition, in data set [4], the MIC worked out at 0.5 µg/mL (≈ 1.21 µM). In addition, in data set [9], the MIC worked out at 16 µg/mL (≈ 38.6 µM). The MIC in [5] is 0.25 µg/mL (≈ 0.603 µM). Also, the MIC in [10] came out at 0.25 µg/mL (≈ 0.603 µM). Besides, the MIC in [6] was at most 0.12 µg/mL.
On to `COc1c(N2CCc3occc3C2C)c(F)cc2c(=O)c(C(=O)O)cn(C3CC3)c12` (stereo not drawn) [Compound 23, 1-Cyclopropyl-6-fluoro-8-methoxy-7-(4-methyl-6,7-dihydro-4H-fluoro[3,2-c]pyridin-5-yl)-4-oxo-1,4-dihydro-quinoline-3-carboxylic acid], for which the “MIC, in vitro activity, Bp” value in data set [1] is recorded as “≦0.12 μg/ml”. Moreover, the “MIC, in vitro activity, Sa1” value in [2] came to 8 µg/mL (≈ 19.4 µM). Moreover, the “MIC, in vitro activity, Ef1” value in [8] (Mueller Hinton Broth) was 2 µg/mL (≈ 4.85 µM). In addition, the “MIC, in vitro activity, Pa” value in [9] is above 16 µg/mL.
With `COc1c(N2CCc3sc(CO)cc3C2)c(F)cc2c(=O)c(C(=O)O)cn(C3CC3)c12` [Compound 21, 1-Cyclopropyl-6-fluoro-7-(2-hydroxymethyl-6,7-dihydro-4H-thieno[3,2-c]pyridin-5-yl)-8-methoxy-4-oxo-1,4-dihydro-quinoline-3-carboxylic acid], the minimum inhibitory concentration (MIC) in data set [1] is at most 0.12 µg/mL; in data set [2] it was 0.25 µg/mL (≈ 0.562 µM); in data set [8], 0.25 µg/mL (≈ 0.562 µM); in [9], 16 µg/mL (≈ 36 µM); in data set [6], 0.25 µg/mL (≈ 0.562 µM).
Regarding `Nc1c(F)c(N2CCc3sccc3C2)c(F)c2c1c(=O)c(C(=O)O)cn2C1CC1` [Compound 17, 5-Amino-1-cyclopropyl-7-(6,7-dihydro-4H-thieno[3,2-c]pyridin-5-yl)-6,8-difluoro-4-oxo-1,4-dihydro-quinoline-3-carboxylic acid], the MIC in data set [1] was at most 0.12 µg/mL; in [7], at most 0.12 µg/mL; in [2], at most 0.12 µg/mL; in data set [3], at most 0.12 µg/mL; in data set [8], at most 0.12 µg/mL; in data set [4], 0.5 µg/mL (≈ 1.2 µM). Further, the MIC is 16 µg/mL (≈ 38.3 µM) in [9], 0.25 µg/mL (≈ 0.599 µM) in data set [5], 0.25 µg/mL (≈ 0.599 µM) in data set [10] and at most 0.12 µg/mL in data set [6].
In the case of `COc1c(N2CCc3sc([N+](=O)[O-])cc3C2)c(F)cc2c(=O)c(C(=O)O)cn(C3CC3)c12` [Compound 19, 1-Cyclopropyl-6-fluoro-8-methoxy-7-(2-nitro-6,7-dihydro-4H-thieno[3,2-c]pyridin-5-yl)-4-oxo-1,4-dihydro-quinoline-3-carboxylic acid], the MIC was at most 0.12 µg/mL in data set [1]; at most 0.12 µg/mL in [7]; 0.25 µg/mL (≈ 0.544 µM) in data set [2]; at most 0.12 µg/mL in data set [8]; 1 µg/mL (≈ 2.18 µM) in data set [9]; 0.25 µg/mL (≈ 0.544 µM) in [10]. The MIC in [6] was at most 0.12 µg/mL.
Consider `O=C(O)c1cn(C2CC2)c2c(F)c(N3CCc4sccc4C3)c(F)c(F)c2c1=O` [Compound 16, 1-Cyclopropyl-7-(6,7-dihydro-4H-thieno[3,2-c]pyridin-5-yl)-5,6,8-fluoro-4-oxo-1,4-dihydro-quinoline-3-carboxylic acid], for which, in data set [1], the “MIC, in vitro activity, Bp” value is 0.25 µg/mL (≈ 0.595 µM). The “MIC, in vitro activity, Sa1” value in data set [2] came out at 0.25 µg/mL (≈ 0.595 µM). For the same molecule, the “MIC, in vitro activity, Pa” value in data set [9] is above 64 µg/mL.
For `COc1c(N2CCc3sccc3C2)c(F)c([N+](=O)[O-])c2c(=O)c(C(=O)O)cn(C3CC3)c12` [Compound 15, 1-Cyclopropyl-7-(6,7-dihydro-4H-thieno[3,2-c]pyridin-5-yl)-6-fluoro-8-methoxy-5-nitro-4-oxo-1,4-dihydro-quinoline-3-carboxylic acid], the figures for the MIC in data set [1] and in [2] were 0.25 µg/mL (≈ 0.544 µM) and 1 µg/mL (≈ 2.18 µM), respectively.
In the case of `O=C(O)c1cn(C2CC2)c2cc(N3CCNCC3)c(F)cc2c1=O` [Ciprofloxacin, ciprofloxacin, reference compound], the MIC in [1] was below 0.12 µg/mL; in data set [7] it was 0.5 µg/mL (≈ 1.51 µM); in data set [2] it was 0.25 µg/mL (≈ 0.754 µM); in data set [3], 0.5 µg/mL (≈ 1.51 µM); in data set [8], 0.25 µg/mL (≈ 0.754 µM); in data set [4], 0.5 µg/mL (≈ 1.51 µM). For the same molecule, the MIC in data set [9] is 0.5 µg/mL (≈ 1.51 µM); in data set [5] it was 0.25 µg/mL (≈ 0.754 µM); in data set [10] it was 0.25 µg/mL (≈ 0.754 µM); in [6] it was 0.25 µg/mL (≈ 0.754 µM).
Turning to `COc1c(N2CCc3sc(C(=O)O)cc3C2)c(F)cc2c(=O)c(C(=O)O)cn(C3CC3)c12` [Compound 22, 7-(2-carboxy-6,7-dihydro-4H-thieno[3,2-c]pyridin-5-yl)-1-cyclopropyl-6-fluoro-8-methoxy-4-oxo-1,4-dihydro-quinoline-3-carboxylic acid], the MIC in data set [1] is 0.5 µg/mL (≈ 1.09 µM); in data set [2], 4 µg/mL (≈ 8.72 µM); in data set [8], 8 µg/mL (≈ 17.4 µM); in [9], above 16 µg/mL.
In the case of `COc1c(N2CCNC(C)C2)c(F)cc2c(=O)c(C(=O)O)cn(C3CC3)c12` (stereo not drawn) [Gatifloxacin, gatifloxacin, reference compound], the MIC in data set [1] was at most 0.12 µg/mL; in data set [7] it was 0.5 µg/mL (≈ 1.33 µM); in data set [2], at most 0.12 µg/mL; in [3], at most 0.12 µg/mL; in data set [8], 0.5 µg/mL (≈ 1.33 µM); in data set [4], 0.25 µg/mL (≈ 0.666 µM). Further, the MIC is 4 µg/mL (≈ 10.7 µM) in data set [9], 0.12 µg/mL (≈ 0.32 µM) in data set [5], 0.5 µg/mL (≈ 1.33 µM) in [10] and at most 0.12 µg/mL in [6].
For `COc1c(N2CCc3sc(C=O)cc3C2)c(F)cc2c(=O)c(C(=O)O)cn(C3CC3)c12` [Compound 20, 1-Cyclopropyl-6-fluoro-7-(2-formyl-6,7-dihydro-4H-thieno[3,2-c]pyridin-5-yl)-8-methoxy-4-oxo-1,4-dihydro-quinoline-3-carboxylic acid], the MIC was at most 0.12 µg/mL in data set [1]; 0.25 µg/mL (≈ 0.565 µM) in data set [7]; at most 0.12 µg/mL in data set [2]; at most 0.12 µg/mL in data set [8]; 8 µg/mL (≈ 18.1 µM) in data set [9]; 0.25 µg/mL (≈ 0.565 µM) in data set [6].

The term MIC denotes the smallest concentration in the dilution series that meets the test's criterion for growth inhibition. As a reminder, the melting point is the temperature of the solid-liquid transition.

The values above are taken from patent publication US20070275994A1, “Novel Antinfective Compounds” (priority 2003, published 2007).
